Reference: paper PMC12002301, “Discovery and functional characterization of a bombesin-type neuropeptide signaling system in an invertebrate” (Proceedings of the National Academy of Sciences of the …, 2025)

Legend:
[1] = system: ArBNR3; test: Luminescence (GFP-aequorin Ca2+) assay, CHO-K1 cells coexpressing ArBNR3 and Gqs5; assay type: cell-based, Asterias rubens; settings: ArBNR3, words; up to 10^-5 M
Method: (§1) Having investigated relationships of eleven A. rubens BN-type receptor candidates (ArBNR1-11) with BN-type, ET-type, and CCHa/EP-type receptors in other taxa, ArBNR1 was identified as the best candidate and therefore this was selected for experimental testing. However, two other receptors (ArBNR2 and ArBNR3) were also tested. The methods employed for functional characterization of A. rubens neuropeptide receptors have been described previously ([57]) and a description of the methods employed in this study is included in SI Appendix, SI Methods. […]
(§2) Functional characterization of A. rubens BN-type receptors
(§3) Two cDNAs encoding ArBNR1 and ArBNR3 were cloned from A. rubens radial nerve cord cDNA using Q5 polymerase (NEB, Cat. no. M0491S) and PCR with specific primers (SI Appendix, Table S5). To facilitate expression of the cloned receptors, the forward primers were designed to contain a partial Kozak consensus sequence (ACC) before the ATG start codon. Then, PCR products were inserted into the mammalian expression vector pcDNA 3.1(+) (Invitrogen, Cat. no.
(§4) V79020) that had been cut in advance with the restriction enzyme EcoRV (NEB, Cat. no. […] Successful ligation and the direction of the insert was determined by restriction enzyme digestion and sequencing (TubeSeq service; Eurofins Genomics). […]
(§5) identical to residues 18 - 270 of the protein XP_033631283.1, which was determined from genome […]

[2] = system: CHO-K1 cells transfected with empty pcDNA3.1(+) vector; test: Luminescence control assay, CHO-K1 cells cotransfected with empty pcDNA3.1(+) vector and Gqs5; assay type: cell-based, Chinese hamster; settings: empty pcDNA3.1(+) vector and Gqs5, words
[3] = system: ArBNR2; test: Luminescence (GFP-aequorin Ca2+) assay, CHO-K1 cells coexpressing ArBNR2 and Gqs5; assay type: cell-based, Asterias rubens; settings: ArBNR2, words; up to 10^-5 M
Method: as §1, §2, §3, §4, §5

Measured: peptide-induced luminescence

EPMPSSLALYIANLSP-NH2 [ArBNP65-81, C-terminally amidated 16-residue peptide predicted to be derived from residues 65 to 81 of ArBNP]
did not trigger luminescence: all assays above

NYNRVFGPTY-NH2 [ArBN5-14, C-terminally amidated 10-residue peptide corresponding to the C-terminal region of ArBN]
did not trigger luminescence: all assays above
